Values quoted from earlier work in patent publication US20050148519A1, “Salts of pharmacologically active compounds” (priority 2003, published 2005).

What was measured:
[1] = dog, oral 2.2, 6.6 and 11.0 mg/kg
[2] = for Injection site reaction: intramuscular or subcutaneous for flunixin, route not given for the others

SMILES: Cc1c(Nc2ncccc2C(=O)O)cccc1C(F)(F)F [flunixin]
- Time flunixin is present in tissues at a pharmaceutically effective amount (injection in a conventional format): 6 to 12 h
- Flunixin serum concentration immediately following administration (single dose 1.1 mg/kg): 8 to 13 µg/mL
- Flunixin serum concentration within 4 hours of administration (single dose 1.1 mg/kg): sub micro gram/mL
- Time post administration to undetectable flunixin serum levels (single dose 1.1 mg/kg): 6 to 12 h
- Side effects following oral dosing [1]: vomiting, diarrhea, blood in stools, and gastro-intestinal ulceration were common
- Injection site reaction [2]: can cause tissue damage

SMILES: CC[C@H]1OC(=O)C[C@@H](O)[C@H](C)[C@@H](O[C@@H]2O[C@H](C)[C@@H](O)[C@H](N(C)C)[C@H]2O)[C@@H](CCN2C[C@H](C)C[C@H](C)C2)C[C@@H](C)C(=O)/C=C/C(C)=C/[C@@H]1CO[C@@H]1O[C@H](C)[C@@H](O)[C@@H](OC)[C@H]1OC [tilmicosin]
- Time for injection site reactions to dissipate ([2]; in vivo): two to three days
- Injection site reaction [2]: mild injection site reactions

SMILES: CN(C)[C@@H]1C(O)=C(C(N)=O)C(=O)[C@@]2(O)C(O)=C3C(=O)c4c(O)cccc4[C@@](C)(O)[C@H]3[C@H](O)[C@@H]12 [Oxytetracyclines, oxytetracycline]
- Injection site reaction [2]: severe injection site inflammations and even necrosis
